Literature values in US8188123B2, “(Pyrrolidin-2-yl)phenyl derivatives” (priority 2008, dated 2012).
Read-outs that look alike come from different tables or passages of the source.

What was measured:
[1] = tested on: ectopic discharges in A-beta and A-delta fibres; conditions: nerve injury
spontaneous pain = conditions: rat mild thermal injury model
mechanical allodynia [2] = conditions: local administration to the sciatic nerve 4 h after surgery; Brennan model
[3] = tested on: nerve injured myelinated DRG
allodynia = conditions: rat CFA model of inflammatory pain
mechanical allodynia [4] = conditions: intraperitoneal administration; Chung/von Frey

CCN(c1ccccc1)c1cc(=NC)n(C)c(C)n1.Cl [ZD 7288]
firing frequency of ectopic discharges [1]: reduced the firing frequency of ectopic discharges in A-beta and A-delta fibres, without causing conduction block | spontaneous pain (spontaneous pain): blocks spontaneous pain | mechanical allodynia (mechanical allodynia [2]): attenuates mechanical allodynia | spontaneous activity [3]: reduces spontaneous activity | allodynia (allodynia): suppresses allodynia | mechanical allodynia (mechanical allodynia [4]): dose-dependently reverses mechanical allodynia
